Test results reported in patent publication US12215140B2, “Method of stabilizing protein contained in specimen and solution for stabilizing protein contained in specimen” (EIKEN KAGAKU KABUSHIKI KAISHA, priority 2018, dated 2025).

Molecular target: hemoglobin (Homo sapiens, UniProt P68871+P69905)
Test: Stability of hemoglobin in samples preserved at 37° C. in preservation solution containing no haptoglobin, Hb measured by latex agglutination method (Examples 8, 9 and Table 10)
Description: Preservation solutions were prepared with the addition of 40 mmol/L HEPES (pH 6.8), 0.1% BSA, 0.1% NaN3, and 0 to 2.5 mmol/L phenylboronic acid. […] Samples obtained by adding hemoglobin-added fecal specimens to the preservation solutions so that the fecal concentration would be 0.5% were preserved at 37° C. for 0, 16, 38, and 62 hours. The fecal specimens were added with hemoglobin having an amount such that the hemoglobin concentration in the samples would be about 300 μg/L. Instead of the fecal specimens to which hemoglobin was added, samples containing no fecal specimens, in which hemoglobin was added to the preservation solutions so that the hemoglobin concentration in the samples would be 300 μg/L, were similarly preserved. The hemoglobin (Hb) concentrations (μg/L) in the preserved samples were measured by the latex agglutination method using the same measurement reagent and measurement device as in Example 1.
The concentration of phenylboronic acid in the preservation solutions of Example 8 was fixed to 0.5 mmol/L, preservation solutions to which sorbitol or sucrose was further added at 10 to 250 mmol/L or trehalose, glucose, fructose, or mannitol was further added at 50 to 100 mmol/L were prepared, and testing was conducted in the same manner as in Example 8. In addition, preservation solutions to which the phenylboronic acid was added but no sugar was added were prepared, preservation solutions to which the phenylboronic acid and sugar were not added were prepared for the comparative examples, and testing was conducted in the same manner.
For comparative examples, preservation solutions to which no arylboronic acid was added were prepared, and testing was conducted in the same manner.

[1] = Feces 1, 0 h at 37° C., arylboronic acid 0.5 mmol/L, no sugar
[2] = Feces 1, 16 h at 37° C., arylboronic acid 0.5 mmol/L, no sugar
[3] = Feces 1, 38 h at 37° C., arylboronic acid 0.5 mmol/L, no sugar
[4] = Feces 1, 62 h at 37° C., arylboronic acid 0.5 mmol/L, no sugar
[5] = Feces 1, arylboronic acid 0.5 mmol/L, 0 h at 37° C.
[6] = Feces 1, arylboronic acid 0.5 mmol/L, 16 h at 37° C.
[7] = Feces 1, arylboronic acid 0.5 mmol/L, 38 h at 37° C.
[8] = Feces 1, arylboronic acid 0.5 mmol/L, 62 h at 37° C.
[9] = Feces 1, arylboronic acid 1 mmol/L, 0 h at 37° C.
[10] = Feces 1, arylboronic acid 1 mmol/L, 16 h at 37° C.
[11] = Feces 1, arylboronic acid 1 mmol/L, 38 h at 37° C.
[12] = Feces 1, arylboronic acid 1 mmol/L, 62 h at 37° C.
[13] = Feces 2, 0 h at 37° C., arylboronic acid 0.5 mmol/L, no sugar
[14] = Feces 2, 16 h at 37° C., arylboronic acid 0.5 mmol/L, no sugar
[15] = Feces 2, 38 h at 37° C., arylboronic acid 0.5 mmol/L, no sugar
[16] = Feces 2, 62 h at 37° C., arylboronic acid 0.5 mmol/L, no sugar
[17] = Feces 2, arylboronic acid 0.5 mmol/L, 0 h at 37° C.
[18] = Feces 2, arylboronic acid 0.5 mmol/L, 16 h at 37° C.
[19] = Feces 2, arylboronic acid 0.5 mmol/L, 38 h at 37° C.
[20] = Feces 2, arylboronic acid 0.5 mmol/L, 62 h at 37° C.
[21] = Feces 2, arylboronic acid 1 mmol/L, 0 h at 37° C.
[22] = Feces 2, arylboronic acid 1 mmol/L, 16 h at 37° C.
[23] = Feces 2, arylboronic acid 1 mmol/L, 38 h at 37° C.
[24] = Feces 2, arylboronic acid 1 mmol/L, 62 h at 37° C.
[25] = Feces 3, 0 h at 37° C., arylboronic acid 0.5 mmol/L, no sugar
[26] = Feces 3, 16 h at 37° C., arylboronic acid 0.5 mmol/L, no sugar
[27] = Feces 3, 38 h at 37° C., arylboronic acid 0.5 mmol/L, no sugar
[28] = Feces 3, 62 h at 37° C., arylboronic acid 0.5 mmol/L, no sugar
[29] = Feces 3, arylboronic acid 0.5 mmol/L, 0 h at 37° C.
[30] = Feces 3, arylboronic acid 0.5 mmol/L, 16 h at 37° C.
[31] = Feces 3, arylboronic acid 0.5 mmol/L, 38 h at 37° C.
[32] = Feces 3, arylboronic acid 0.5 mmol/L, 62 h at 37° C.
[33] = Feces 3, arylboronic acid 1 mmol/L, 0 h at 37° C.
[34] = Feces 3, arylboronic acid 1 mmol/L, 16 h at 37° C.
[35] = Feces 3, arylboronic acid 1 mmol/L, 38 h at 37° C.
[36] = Feces 3, arylboronic acid 1 mmol/L, 62 h at 37° C.
[37] = No feces, 0 h at 37° C., arylboronic acid 0.5 mmol/L, no sugar
[38] = No feces, 16 h at 37° C., arylboronic acid 0.5 mmol/L, no sugar
[39] = No feces, 38 h at 37° C., arylboronic acid 0.5 mmol/L, no sugar
[40] = No feces, 62 h at 37° C., arylboronic acid 0.5 mmol/L, no sugar
[41] = No feces, arylboronic acid 0.5 mmol/L, 0 h at 37° C.
[42] = No feces, arylboronic acid 0.5 mmol/L, 16 h at 37° C.
[43] = No feces, arylboronic acid 0.5 mmol/L, 38 h at 37° C.
[44] = No feces, arylboronic acid 0.5 mmol/L, 62 h at 37° C.
[45] = No feces, arylboronic acid 1 mmol/L, 0 h at 37° C.
[46] = No feces, arylboronic acid 1 mmol/L, 16 h at 37° C.
[47] = No feces, arylboronic acid 1 mmol/L, 38 h at 37° C.
[48] = No feces, arylboronic acid 1 mmol/L, 62 h at 37° C.

Chain of hemoglobin (P69905 2-142): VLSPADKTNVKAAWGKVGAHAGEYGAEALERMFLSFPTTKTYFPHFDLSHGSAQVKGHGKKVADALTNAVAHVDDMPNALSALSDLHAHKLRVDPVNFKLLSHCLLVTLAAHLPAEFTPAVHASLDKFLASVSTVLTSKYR
Chain of hemoglobin (P68871 2-147): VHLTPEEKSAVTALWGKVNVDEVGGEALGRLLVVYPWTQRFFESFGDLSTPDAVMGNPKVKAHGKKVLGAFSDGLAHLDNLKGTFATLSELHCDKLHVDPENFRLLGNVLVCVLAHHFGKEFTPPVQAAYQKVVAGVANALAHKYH

Question: How did the Hb concentration [1] turn out when `OB(O)c1ccccc1` [PBA] was run?
Answer: 300 µg/L

Question: And the “Recovery ratio with respect to Hb after 0 days” value (from here on “Recovery ratio”) [1]?
Answer: 100%

Question: And the Hb concentration [2]?
Answer: 174 µg/L

Question: And the “Recovery ratio” value [2]?
Answer: 58%

Question: What about the Hb concentration [3] of the same compound?
Answer: 74 µg/L

Question: What about the “Recovery ratio” value [3] of the same compound?
Answer: 25%

Question: And the Hb concentration [4]?
Answer: 17 µg/L

Question: And the “Recovery ratio” value [4]?
Answer: 6%

Question: And the Hb concentration [5]?
Answer: 300 µg/L

Question: What about the “Recovery ratio” value [5] of the same compound?
Answer: 100%

Question: What about the Hb concentration [6] of the same compound?
Answer: 174 µg/L

Question: What about the “Recovery ratio” value [6] of the same compound?
Answer: 58%

Question: What about the Hb concentration [7] of the same compound?
Answer: 74 µg/L

Question: What about the “Recovery ratio” value [7] of the same compound?
Answer: 25%

Question: And the Hb concentration [8]?
Answer: 17 µg/L

Question: What about the “Recovery ratio” value [8] of the same compound?
Answer: 6%

Question: What about the Hb concentration [9] of the same compound?
Answer: 298 µg/L

Question: What about the “Recovery ratio” value [9] of the same compound?
Answer: 100%

Question: What about the Hb concentration [10] of the same compound?
Answer: 182 µg/L

Question: And the “Recovery ratio” value [10]?
Answer: 61%

Question: What about the Hb concentration [11] of the same compound?
Answer: 92 µg/L

Question: And the “Recovery ratio” value [11]?
Answer: 31%

Question: What about the Hb concentration [12] of the same compound?
Answer: 30 µg/L

Question: And the “Recovery ratio” value [12]?
Answer: 10%

Question: What about the Hb concentration [13] of the same compound?
Answer: 299 µg/L

Question: What about the “Recovery ratio” value [13] of the same compound?
Answer: 100%

Question: What about the Hb concentration [14] of the same compound?
Answer: 103 µg/L

Question: What about the “Recovery ratio” value [14] of the same compound?
Answer: 34%

Question: And the Hb concentration [15]?
Answer: 10 µg/L

Question: And the “Recovery ratio” value [15]?
Answer: 3%

Question: And the Hb concentration [16]?
Answer: 0 µg/L

Question: What about the “Recovery ratio” value [16] of the same compound?
Answer: 0%

Question: What about the Hb concentration [17] of the same compound?
Answer: 299 µg/L

Question: And the “Recovery ratio” value [17]?
Answer: 100%

Question: What about the Hb concentration [18] of the same compound?
Answer: 103 µg/L

Question: What about the “Recovery ratio” value [18] of the same compound?
Answer: 34%

Question: And the Hb concentration [19]?
Answer: 10 µg/L

Question: What about the “Recovery ratio” value [19] of the same compound?
Answer: 3%

Question: And the Hb concentration [20]?
Answer: 0 µg/L

Question: And the “Recovery ratio” value [20]?
Answer: 0%

Question: And the Hb concentration [21]?
Answer: 299 µg/L

Question: What about the “Recovery ratio” value [21] of the same compound?
Answer: 100%

Question: What about the Hb concentration [22] of the same compound?
Answer: 119 µg/L

Question: What about the “Recovery ratio” value [22] of the same compound?
Answer: 40%

Question: And the Hb concentration [23]?
Answer: 17 µg/L

Question: What about the “Recovery ratio” value [23] of the same compound?
Answer: 6%

Question: And the Hb concentration [24]?
Answer: 0 µg/L

Question: What about the “Recovery ratio” value [24] of the same compound?
Answer: 0%

Question: And the Hb concentration [25]?
Answer: 289 µg/L

Question: What about the “Recovery ratio” value [25] of the same compound?
Answer: 100%

Question: What about the Hb concentration [26] of the same compound?
Answer: 92 µg/L

Question: And the “Recovery ratio” value [26]?
Answer: 32%

Question: And the Hb concentration [27]?
Answer: 8 µg/L

Question: What about the “Recovery ratio” value [27] of the same compound?
Answer: 3%

Question: And the Hb concentration [28]?
Answer: 0 µg/L

Question: And the “Recovery ratio” value [28]?
Answer: 0%

Question: And the Hb concentration [29]?
Answer: 289 µg/L

Question: And the “Recovery ratio” value [29]?
Answer: 100%

Question: What about the Hb concentration [30] of the same compound?
Answer: 92 µg/L

Question: And the “Recovery ratio” value [30]?
Answer: 32%

Question: And the Hb concentration [31]?
Answer: 8 µg/L

Question: What about the “Recovery ratio” value [31] of the same compound?
Answer: 3%

Question: And the Hb concentration [32]?
Answer: 0 µg/L

Question: And the “Recovery ratio” value [32]?
Answer: 0%

Question: And the Hb concentration [33]?
Answer: 287 µg/L

Question: And the “Recovery ratio” value [33]?
Answer: 100%

Question: And the Hb concentration [34]?
Answer: 112 µg/L

Question: And the “Recovery ratio” value [34]?
Answer: 39%

Question: What about the Hb concentration [35] of the same compound?
Answer: 14 µg/L

Question: And the “Recovery ratio” value [35]?
Answer: 5%

Question: What about the Hb concentration [36] of the same compound?
Answer: 0 µg/L

Question: And the “Recovery ratio” value [36]?
Answer: 0%

Question: What about the Hb concentration [37] of the same compound?
Answer: 295 µg/L

Question: What about the “Recovery ratio” value [37] of the same compound?
Answer: 100%

Question: What about the Hb concentration [38] of the same compound?
Answer: 284 µg/L

Question: What about the “Recovery ratio” value [38] of the same compound?
Answer: 96%

Question: What about the Hb concentration [39] of the same compound?
Answer: 270 µg/L

Question: And the “Recovery ratio” value [39]?
Answer: 91%

Question: What about the Hb concentration [40] of the same compound?
Answer: 263 µg/L

Question: And the “Recovery ratio” value [40]?
Answer: 89%

Question: What about the Hb concentration [41] of the same compound?
Answer: 295 µg/L

Question: And the “Recovery ratio” value [41]?
Answer: 100%

Question: What about the Hb concentration [42] of the same compound?
Answer: 284 µg/L

Question: And the “Recovery ratio” value [42]?
Answer: 96%

Question: What about the Hb concentration [43] of the same compound?
Answer: 270 µg/L

Question: What about the “Recovery ratio” value [43] of the same compound?
Answer: 91%

Question: And the Hb concentration [44]?
Answer: 263 µg/L

Question: And the “Recovery ratio” value [44]?
Answer: 89%

Question: And the Hb concentration [45]?
Answer: 292 µg/L

Question: And the “Recovery ratio” value [45]?
Answer: 100%

Question: What about the Hb concentration [46] of the same compound?
Answer: 276 µg/L

Question: And the “Recovery ratio” value [46]?
Answer: 95%

Question: And the Hb concentration [47]?
Answer: 261 µg/L

Question: What about the “Recovery ratio” value [47] of the same compound?
Answer: 90%

Question: What about the Hb concentration [48] of the same compound?
Answer: 259 µg/L

Question: And the “Recovery ratio” value [48]?
Answer: 89%
